Patent US8916575B2, “Quinazoline derivatives for the treatment of viral infections and further diseases” (Janssen R&D Ireland, priority 2011, dated 2014)
pEC50: −log10 of the molar value.

Tests used:
human TLR8 = target: T1, human TLR8 (Homo sapiens, UniProt Q9NR97); assay: TLR8 wild type NFκB-luc cellular reporter assay; assay type: cell-based; parameters: unit not given here; conditions: HEK293 NFκB-luc reporter, 6 hours incubation
T1 construct: expressed in transfected cells; host or cells: HEK293
T1 sequence (Q9NR97 27-1041): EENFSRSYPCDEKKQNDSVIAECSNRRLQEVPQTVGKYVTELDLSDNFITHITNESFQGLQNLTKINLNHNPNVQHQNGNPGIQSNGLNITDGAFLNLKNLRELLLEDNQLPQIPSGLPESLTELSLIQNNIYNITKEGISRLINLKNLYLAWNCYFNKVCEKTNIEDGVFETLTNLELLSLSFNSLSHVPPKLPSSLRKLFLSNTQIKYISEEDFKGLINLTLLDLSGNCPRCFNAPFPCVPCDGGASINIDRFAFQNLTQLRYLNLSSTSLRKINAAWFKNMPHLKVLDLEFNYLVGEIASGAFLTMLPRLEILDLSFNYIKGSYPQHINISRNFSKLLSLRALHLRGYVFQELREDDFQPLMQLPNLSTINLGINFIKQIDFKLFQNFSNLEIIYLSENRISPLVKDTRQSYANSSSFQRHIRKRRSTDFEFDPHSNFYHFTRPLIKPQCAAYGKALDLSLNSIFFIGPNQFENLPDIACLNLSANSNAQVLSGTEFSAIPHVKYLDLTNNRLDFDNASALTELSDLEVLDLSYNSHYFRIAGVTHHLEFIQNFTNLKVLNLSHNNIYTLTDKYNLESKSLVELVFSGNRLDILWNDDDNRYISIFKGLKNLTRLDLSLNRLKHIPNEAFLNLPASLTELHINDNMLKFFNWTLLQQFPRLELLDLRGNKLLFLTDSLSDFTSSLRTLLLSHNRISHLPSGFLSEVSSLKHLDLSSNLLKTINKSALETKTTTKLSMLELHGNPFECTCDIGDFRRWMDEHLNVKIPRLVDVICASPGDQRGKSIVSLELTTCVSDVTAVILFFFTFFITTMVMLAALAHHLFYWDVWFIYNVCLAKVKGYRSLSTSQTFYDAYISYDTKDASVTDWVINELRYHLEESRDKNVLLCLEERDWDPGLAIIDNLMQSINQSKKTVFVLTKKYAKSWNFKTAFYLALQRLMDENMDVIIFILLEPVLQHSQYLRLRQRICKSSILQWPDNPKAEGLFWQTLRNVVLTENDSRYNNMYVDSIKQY
How it was run: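 HEK293 cells transiently transfected with wild-type or second-LRR-deletion (dIRR2) TLR7/TLR8 plasmid plus NFκB-luc, 24 h; compound added for 6 h at 37 °C. Luciferase read-out, quadruplicate dose responses. LEC = lowest concentration giving effect at least two-fold above assay SD.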

[1] = system: human TLR8 mutant (dIRR2); assay: TLR8 mutant (deletion in second leucine-rich repeat) NFκB-luc cellular reporter assay; assay type: cell-based; parameters: unit not given here; conditions: HEK293 NFκB-luc reporter, mutant TLR8, 6 hours incubation
Protocol: (§1) The ability of compounds to activate human TLR7 and/or TLR8 was assessed in a cellular reporter assay using HEK293 cells transiently transfected with a TLR7 or TLR8 expression vector and NFκB-luc reporter construct. In one instance the TLR expression construct expresses the respective wild type sequence or a mutant sequence comprising a deletion in the second leucine-rich repeat of the TLR.
(§2) Briefly, HEK293 cells were grown in culture medium (DMEM supplemented with 10% FCS and 2 mM Glutamine). For transfection of cells in 10 cm dishes, cells were detached with Trypsin-EDTA, transfected with a mix of CMV-TLR7 or TLR8 plasmid (750 ng), NFκB-luc plasmid (375 ng) and a transfection reagent and incubated 24 hours at 37° C. in a humidified 5% CO2 atmosphere. Transfected cells were then detached with Trypsin-EDTA, washed in PBS and resuspended in medium to a density of 1.67×10^5 cells/mL. Thirty microliters of cells were then dispensed into each well in 384-well plates, where 10 μL of compound in 4% DMSO was already present. Following 6 hours incubation at 37° C., 5% CO2, the luciferase activity was determined by adding 15 μl of Steady Lite Plus substrate (Perkin Elmer) to each well and readout performed on a ViewLux ultraHTS microplate imager (Perkin Elmer). Dose response curves were generated from measurements performed in quadruplicates. Lowest effective concentrations (LEC) values, defined as the concentration that induces an effect which is at least two fold above the standard deviation of the assay, were determined for each compound.

[2] = system: HCV replicon (Huh-7 luc/neo cells); assay: Suppression of HCV replicon replication by conditioned media from PBMC; assay type: cell-based, HCV type 1b; conditions: Hepatitis C virus, compound concentration applied to PBMCs giving 50% reduction of replicon luciferase activity, read-out: PBMC-HUH7_EC50
Protocol: Activation of human TLR7 results in robust production of interferon by plasmacytoid dendritic cells present in human blood. The potential of compounds to induce interferon was evaluated by looking at the antiviral activity in the HCV replicon system upon incubation with conditioned media from peripheral blood mononuclear cells (PBMC). The HCV replicon assay is based on a bicistronic expression construct, as described by Lohmann et al. (Science (1999) 285: 110-113; Journal of Virology (2003) 77: 3007-15 3019) with modifications described by Krieger et al. (Journal of Virology (2001) 75: 4614-4624). The assay utilized the stably transfected cell line Huh-7 luc/neo harboring an RNA encoding a bicistronic expression construct comprising the wild type NS3-NS5B regions of HCV type 1b translated from an Internal Ribosome Entry Site (IRES) from encephalomyocarditis virus (EMCV), preceded by a reporter gene (Firefly-luciferase) and a selectable marker gene (neoR, neomycine phosphotransferase). The construct is flanked by 5′ and 3′ NTRs (non-translated regions) from HCV type 1b. Continued culture of the replicon cells in the presence of G418 (neoR) is dependent on the replication of the HCV RNA. The stably transfected replicon cells that replicate HCV RNA autonomously and to high levels, encoding inter alia luciferase, were used for profiling of the conditioned cell culture media.
Briefly, PBMCs were prepared from buffy coats of at least two donors using a standard Ficoll centrifugation protocol. Isolated PBMCs were resuspended in RPMI medium supplemented with 10% human AB serum and 2×10^5 cells/well were dispensed into 384-well plates containing compounds (70 μL total volume). After overnight incubation, 10 μL of supernatant was transferred to 384-well plates containing 2.2×10^3 replicon cells/well in 30 μL (plated the day before). Following 24 hours of incubation, replication was measured by assaying luciferase activity using 40 μL/well Steady Lite Plus substrate (Perkin Elmer) and measured with ViewLux ultraHTS microplate imager (Perkin Elmer). The inhibitory activity of each compound on the Huh7-luc/neo cells were reported as EC50 values, defined as the compound concentration applied to the PBMCs resulting in a 50% reduction of luciferase activity which in turn indicates the degree of replication of the replicon RNA on transfer of a defined amount of PBMC culture medium. Recombinant interferon α-2a (Roferon-A) was used as a standard control compound.

[3] = system: human TLR7 mutant (dIRR2); assay: TLR7 mutant (deletion in second leucine-rich repeat) NFκB-luc cellular reporter assay; assay type: cell-based; parameters: unit not given here; conditions: HEK293 NFκB-luc reporter, mutant TLR7, 6 hours incubation
Protocol: as §1, §2

Question: Which TLR8-wt_LEC (human TLR8) does the source give for CCCCNc1nc(N)nc2cc(OC)c(OC)cc12 [Compound 1] here?
Answer: Its TLR8-wt_LEC is 1.1.

Question: And the TLR8-dIRR2_LEC [1]?
Answer: Its TLR8-dIRR2_LEC is 0.6.

Question: What about the pEC50 [2] of the same molecule?
Answer: The pEC50 was 5.72.

Question: And the TLR7-dIRR2_LEC [3]?
Answer: Its TLR7-dIRR2_LEC is 0.4.

Question: How did the TLR8-wt_LEC (human TLR8) turn out when CCCC[C@@H](CCO)Nc1nc(N)nc2cc(OC)c(OC)cc12 [Compound 3] was run?
Answer: The TLR8-wt_LEC was 5.5.

Question: What about the TLR8-dIRR2_LEC [1] of the same molecule?
Answer: Its TLR8-dIRR2_LEC is 2.4.

Question: What about the pEC50 [2] of the same molecule?
Answer: The pEC50 was 6.22.

Question: What about the TLR7-dIRR2_LEC [3] of the same molecule?
Answer: The TLR7-dIRR2_LEC was 0.9.

Question: With CC[C@H](C)[C@@H](CO)Nc1nc(N)nc2c(F)cccc12 [Compound 67] as the molecule, how does the “TLR8-wt (LEC)” value (human TLR8; second part of table) read?
Answer: Its value is 0.11.
